Results published in article PMC4002244, “ACE2 deficiency increases NADPH‐mediated oxidative stress in the kidney” (Physiological Reports, 2014).
Each block holds one compound with its values, some of them ahead of it.

Legend:
[1] = Ex vivo degradation of exogenous Ang II in kidney cortex lysates; format: in vitro ADME, mouse; settings: 6 μg protein, Ang II 10^-9 mol/L, PBS pH 7.4 with 5 μmol/L ZnCl2, 37°C, ELISA
Description: (§1) Kidney cortex lysates (from ACE2 KO and WT mice) corresponding to 6 μg of total protein were individually incubated with 10^−9mol/L angiotensin II (Sigma‐Aldrich, St. Louis, MO) by constant shaking for up to 24 h at 37°C in PBS pH 7.4 containing 5 μmol/L ZnCl2. The incubation was performed with or without addition of the specific ACE2 inhibitor, MLN‐4760 (10^−6mol/L). Following the incubation, samples were diluted 1/5 in EDTA‐containing buffer (0.1 mol/L phosphate buffer, pH 7.4 containing 0.15 mol/L NaCl, 1 mmol/L EDTA, 0.1% BSA) and immediately frozen. The quantity of Ang II in the diluted samples was measured using enzyme‐linked immunosorbent assay kits (SPIBio, Cayman Chemical). Angiotensin quantity in each sample was expressed as a percentage ratio of the Ang remaining after a given incubation time to the initial Ang load (100%).

ACE2 = molecular target: T1, ACE2 (Mus musculus, UniProt Q8R0I0); assay: Ex vivo Ang II degradation by kidney cortex lysates with ACE2 inhibitor; format: biochemical; settings: WT lysates (6 μg protein, n = 5), MLN-4760 10^-6 mol/L, Ang II 10^-9 mol/L, PBS pH 7.4 with 5 μmol/L ZnCl2, 37°C, up to 24 h, Ang II by ELISA; P < 0.05 vs. WT without MLN-4760; similar to ACE2KO
T1 construct: from tissue; host or cells: kidney cortex of wild-type C57BL/6 mice (littermates of the ACE2KO mice)
Description: as §1

[2] = system: kidney cortex NADPH oxidase activity; assay: Kidney cortex NADPH oxidase activity (lucigenin chemiluminescence) in ACE2KO mice after angiotensin receptor blockade; format: in vivo, mouse; settings: for Kidney cortex NADPH oxidase activity, percent of WT controls: male ACE2KO C57BL/6 mice, 2 weeks
Description: NADPH oxidase activity in kidney cortex was measured using lucigenin (5 μmol/L) and NADPH (100 μmol/L) as previously described (Block et al. 2007). Light emission was recorded every 1 min over a 10‐min period at room temperature in a 20/20^n luminometer (Turner Biosystems, Sunnyvale, CA). Superoxide anion production was expressed as relative chemiluminescence (light) units (RLU)/μg protein. There was no measurable activity in the absence of NADPH. Protein content was measured using the BCA protein assay reagent (Pierce, Rockford, IL).
ACE2KO and control mice at the age of 20–30 weeks were treated with losartan (Triangle Compounding Pharmacy, Cary, NC) or placebo for 2 weeks. Losartan was administered to ACE2KO at two doses: 10 mg/kg/day (n = 4) and 30 mg/kg/day (n = 5) in drinking water in two separate experiments. Another group of ACE2KO (n = 6) and WT controls (n = 5 and n = 10) were given vehicle drug, with similar taste and consistency. Water bottles were weighed daily to document accurate drug consumption. At the end of 2 weeks of treatment with losartan, we proceeded to measure markers of oxidative stress as described above.
A separate group of male ACE2 knockout mice at 35 weeks of age underwent either sham operation (n = 8) or osmotic minipump (Alzet 1002) implantation to infuse the AT2 receptor blocker, PD123319 (2 mg/kg/day, n = 8) for 14 days. Pumps were implanted subcutaneously on the back between the shoulder blades and hips while animals were anesthetized by inhalation of isoflurane anesthetic. At the end of 2 weeks of treatment with PD123319, we proceeded to measure markers of oxidative stress as described above.

T1 sequence (Q8R0I0 18-805): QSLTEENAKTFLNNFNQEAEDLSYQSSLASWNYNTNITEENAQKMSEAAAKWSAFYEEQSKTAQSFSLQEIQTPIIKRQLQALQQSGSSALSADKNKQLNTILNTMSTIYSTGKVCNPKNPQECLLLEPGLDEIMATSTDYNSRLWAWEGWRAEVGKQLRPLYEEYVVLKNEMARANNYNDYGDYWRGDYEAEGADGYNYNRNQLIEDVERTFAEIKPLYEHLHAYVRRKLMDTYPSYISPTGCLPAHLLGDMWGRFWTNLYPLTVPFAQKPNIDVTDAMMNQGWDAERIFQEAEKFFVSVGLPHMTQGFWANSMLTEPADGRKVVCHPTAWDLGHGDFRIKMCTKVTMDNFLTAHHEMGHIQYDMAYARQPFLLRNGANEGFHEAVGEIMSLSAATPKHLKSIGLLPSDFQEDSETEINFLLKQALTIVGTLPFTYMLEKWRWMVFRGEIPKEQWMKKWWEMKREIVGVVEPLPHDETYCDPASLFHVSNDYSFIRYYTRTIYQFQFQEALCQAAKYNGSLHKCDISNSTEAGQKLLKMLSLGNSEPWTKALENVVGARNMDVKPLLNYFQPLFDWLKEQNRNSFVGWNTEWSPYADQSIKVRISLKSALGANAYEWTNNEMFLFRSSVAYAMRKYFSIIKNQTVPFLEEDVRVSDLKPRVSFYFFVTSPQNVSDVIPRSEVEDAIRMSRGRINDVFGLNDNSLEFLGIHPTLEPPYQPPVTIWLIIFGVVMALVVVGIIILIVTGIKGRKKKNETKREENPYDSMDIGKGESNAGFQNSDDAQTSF

metabolised ([1]; mouse, kidney cortex lysates (ACE2 KO, with MLN-4760 (ACE2 inhibitor, 10^-6 mol/L) in the WT lysates), lysates of ACE2 KO or WT + MLN-4760 (10^-6 mol/L), constant shaking, up to 24 h, n = 5, read-out: Proportion of Ang II degraded in kidney cortex lysates despite the lack of ACE2): ~50%
SMILES: CC[C@H](C)[C@H](NC(=O)[C@H](Cc1ccc(O)cc1)NC(=O)[C@@H](NC(=O)[C@H](CCCNC(=N)N)NC(=O)[C@@H](N)CC(=O)O)C(C)C)C(=O)N[C@@H](Cc1cnc[nH]1)C(=O)N1CCC[C@H]1C(=O)N[C@@H](Cc1ccccc1)C(=O)O [Ang II, angiotensin II]
Ang II degradation by WT versus ACE2KO kidney cortex lysates (in words) ([1]; 6 and 24 h of incubation, n = 5 per group, P < 0.05): kidney lysates from WT mice degrade significantly more Ang II than the lysates obtained from ACE2KO

SMILES: CC(C)C[C@H](N[C@@H](Cc1cncn1Cc1cc(Cl)cc(Cl)c1)C(=O)O)C(=O)O [MLN-4760]
Effect of co-incubation on Ang II degradation rate by WT kidney cortex lysates (ACE2): significant decrease in Ang II degradation rate

SMILES: Cc1cc(Cn2cnc3c2C[C@@H](C(=O)O)N(C(=O)C(c2ccccc2)c2ccccc2)C3)ccc1N(C)C [PD123319]
Kidney NADPH oxidase activity, percent of sham-operated ACE2KO mice ([2]; male ACE2KO mice, 35 weeks old, PD123319 2 mg/kg/day subcutaneous osmotic minipump, 14 days, n = 8, sham-operated ACE2KO 100 ± 21%, P = 0.541, mean ± SEM, SEM): 83 ± 17%

SMILES: CCCCc1nc(Cl)c(CO)n1Cc1ccc(-c2ccccc2-c2nn[nH]n2)cc1 [losartan]
Effect on kidney NADPH oxidase activity in ACE2KO (in words) ([2]; ACE2KO mice, losartan 30 mg/kg/day): normalization of NADPH oxidase activity
Kidney cortex NADPH oxidase activity, percent of WT controls ([2]; losartan 10 mg/kg/day in drinking water, n = 4, vehicle WT 100 ± 20%, P < 0.05, vehicle ACE2KO 181 ± 24%, mean ± SEM, SEM): 201 ± 22%
Kidney cortex NADPH oxidase activity, percent of WT controls ([2]; losartan 30 mg/kg/day in drinking water, n = 5, vehicle WT 100 ± 18% (n = 10), P = 0.709, mean ± SEM, SEM): 83 ± 29%
